{"source": "patent US8324264B1", "about": "“Inhibitors of bacterial biofilms and related methods” (Sequoia Sciences, Inc., priority 2011, dated 2012)", "key": {"P. aeruginosa biofilms": {"tested_on": "P. aeruginosa biofilms", "assay": "Biofilm growth assay (spreading biofilm on semi-solid agar), P. aeruginosa", "type": "cell-based", "conditions": "biofilm growth assay, overnight 37° C., vs negative controls, Tables 1-5; for IC85: Pseudomonas aeruginosa, read-out: P. aeruginosa: concentration that reduces the area of the spreading biofilm by greater than or equal to 85%", "method_in_brief": "(§1)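 Compound added to semi-solid agar: M8 with 0.2% glucose, 100 μM CaCl2, 1 mM MgSO4, 0.5% Casamino acids (P. aeruginosa) or LB with 0.6% agar, 0.5% glucose (E. coli). Center-inoculated with 5 μL overnight culture, incubated overnight at 37 °C; value is concentration (μg/ml) reducing spreading area ≥85% versus negative controls.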"}, "E. coli biofilms": {"tested_on": "E. coli biofilms", "assay": "Biofilm growth assay (spreading biofilm on semi-solid agar), E. coli", "type": "cell-based", "conditions": "biofilm growth assay, overnight 37° C., vs negative controls, Tables 1-5; for IC85: Escherichia coli, read-out: E. coli: concentration that reduces the area of the spreading biofilm by greater than or equal to 85%", "method_in_brief": "as §1"}}, "data": [{"smiles": "C=C(C)[C@@H]1CC[C@]2(C(=O)O)CC[C@]3(C)[C@H](CC[C@@H]4[C@@]5(C)CC[C@H](O)C(C)(C)[C@@H]5CC[C@]43C)[C@@H]12", "note": "[Betulinic acid, reference compound]", "values": [{"measurement": "IC85", "setting": "P. aeruginosa biofilms", "value": "> 16", "unit": "µg/mL"}, {"measurement": "IC85", "setting": "E. coli biofilms", "value": "> 16", "unit": "µg/mL"}]}, {"smiles": "Cc1ccc(C2=C3C4CC(C)(C)CC[C@]4(C(=O)O)CC[C@@]3(C)[C@]3(C)CCC4C(C)(C)c5n[nH]c(N)c5C[C@]4(C)C3C2)cc1N", "note": "(stereo partly drawn) [Example 20, (4aS,6aS,6bR,13aR)-12-Amino-15-(3-amino-4-methylphenyl)-2,2,6a,6b,9,9,13a-heptamethyl-2,3,4,4a,5,6,6a,6b,7,8,8a,9,11,13,13a,13b,14,15b-octadecahydro-1H-chryseno[1,2-f]indazole-4-a-carboxylic acid]", "values": [{"measurement": "P. aeruginosa: concentration that reduces the area of the spreading biofilm by greater than or equal to 85%", "setting": "P. aeruginosa biofilms", "value": 0.5, "unit": "µg/mL"}, {"measurement": "E. coli: concentration that reduces the area of the spreading biofilm by greater than or equal to 85%", "setting": "E. coli biofilms", "value": 2, "unit": "µg/mL"}]}, {"smiles": "C[C@@H]1CC[C@]2(C(=O)O)CC[C@]3(C)C(=CCC4[C@@]5(C)C[C@H](CO)[C@H](O)C(C)(C)C5CC[C@]43C)C2[C@H]1C", "note": "(some centres unmarked) [A]", "values": [{"measurement": "IC85", "setting": "P. aeruginosa biofilms", "value": 8, "unit": "µg/mL"}, {"measurement": "IC85", "setting": "E. coli biofilms", "value": "> 8", "unit": "µg/mL"}]}, {"smiles": "CC1(C)CC[C@]2(c3n[nH]c(O)c3CCN)CC[C@]3(C)C(=CCC4[C@@]5(C)Cc6c(n[nH]c6N)C(C)(C)[C@@H]5CC[C@]43C)[C@@H]2C1", "note": "(stereo partly drawn) [Compound 84, 3-((4aS,6aS,6bR,13aR)-12-Amino-2,2,6a,6b,9,9,13a-heptamethyl-2,3,4,4a,5,6,6a,6b,7,8,8a,9,11,13,13a,13b,14,15b-octadecahydro-1H-chryseno[1,2-f]indazol-4-a-yl)-4-(2-aminoethyl)-1H-pyrazol-5-ol]", "values": [{"measurement": "IC85", "setting": "P. aeruginosa biofilms", "value": 0.125, "unit": "µg/mL"}, {"measurement": "IC85", "setting": "E. coli biofilms", "value": 0.5, "unit": "µg/mL"}]}, {"smiles": "CC1(C)CC[C@]2(C(=O)Nc3nnc(N)s3)CC[C@]3(C)C(=CCC4[C@@]5(C)Cc6c(n[nH]c6N)C(C)(C)C5CC[C@]43C)C2C1", "note": "(stereo partly drawn) [Compound 71, (4aS,6aS,6bR,13aR)-12-Amino-N-(5-amino-1,3,4-thiadiazol-2-yl)-2,2,6a,6b,9,9,13a-heptamethyl-2,3,4,4a,5,6,6a,6b,7,8,8a,9,11,13,13a,13b,14,15b-octadecahydro-1H-chryseno[1,2-f]indazole-4-a-carboxamide]", "values": [{"measurement": "IC85", "setting": "P. aeruginosa biofilms", "value": 0.5, "unit": "µg/mL"}, {"measurement": "IC85", "setting": "E. coli biofilms", "value": 2, "unit": "µg/mL"}]}, {"smiles": "CC1(C)CC[C@]2(C(=O)O)CC[C@]3(C)C(=C(c4ccc(N)c(F)c4)CC4[C@@]5(C)Cc6c(n[nH]c6N)C(C)(C)C5CC[C@]43C)C2C1", "note": "(stereo partly drawn) [Example 31, (4aS,6aS,6bR,13aR)-12-Amino-15-(4-amino-3-fluorophenyl)-2,2,6a,6b,9,9,13a-heptamethyl-2,3,4,4a,5,6,6a,6b,7,8,8a,9,11,13,13a,13b,14,15b-octadecahydro-1H-chryseno[1,2-f]indazole-4-a-carboxylic acid]", "values": [{"measurement": "P. aeruginosa: concentration that reduces the area of the spreading biofilm by greater than or equal to 85%", "setting": "P. aeruginosa biofilms", "value": 0.5, "unit": "µg/mL"}, {"measurement": "E. coli: concentration that reduces the area of the spreading biofilm by greater than or equal to 85%", "setting": "E. coli biofilms", "value": 1, "unit": "µg/mL"}]}, {"smiles": "CN(C)c1cccc(C2=C3C4CC(C)(C)CC[C@]4(C(=O)O)CC[C@@]3(C)[C@]3(C)CCC4C(C)(C)c5n[nH]c(N)c5C[C@]4(C)C3C2)c1", "note": "(stereo partly drawn) [Example 21, (4aS,6aS,6bR,13aR)-12-Amino-15-(3-(dimethylamino)phenyl)-2,2,6a,6b,9,9,13a-heptamethyl-2,3,4,4a,5,6,6a,6b,7,8,8a,9,11,13,13a,13b,14,15b-octadecahydro-1H-chryseno[1,2-f]indazole-4-a-carboxylic acid]", "values": [{"measurement": "P. aeruginosa: concentration that reduces the area of the spreading biofilm by greater than or equal to 85%", "setting": "P. aeruginosa biofilms", "value": 0.5, "unit": "µg/mL"}, {"measurement": "E. coli: concentration that reduces the area of the spreading biofilm by greater than or equal to 85%", "setting": "E. coli biofilms", "value": ">2", "unit": "µg/mL"}]}, {"smiles": "CC1(C)CC[C@]2(C(=O)O)CC[C@]3(C)C(=C(c4ccc(N5CCNCC5)cc4)CC4[C@@]5(C)Cc6c(n[nH]c6N)C(C)(C)C5CC[C@]43C)C2C1", "note": "(stereo partly drawn) [Example 50, (4aS,6aS,6bR,13aR)-12-Amino-2,2,6a,6b,9,9,13a-heptamethyl-15-(4-(piperazin-1-yl)phenyl)-2,3,4,4a,5,6,6a,6b,7,8,8a,9,11,13,13a,13b,14,15b-octadecahydro-1H-chryseno[1,2-f]indazole-4-a-carboxylic acid]", "values": [{"measurement": "P. aeruginosa: concentration that reduces the area of the spreading biofilm by greater than or equal to 85%", "setting": "P. aeruginosa biofilms", "value": 2, "unit": "µg/mL"}, {"measurement": "E. coli: concentration that reduces the area of the spreading biofilm by greater than or equal to 85%", "setting": "E. coli biofilms", "value": 1, "unit": "µg/mL"}]}, {"smiles": "CC1(C)CC[C@]2(C(=O)O)CC[C@]3(C)C(=C(c4cccc(CN)c4)CC4[C@@]5(C)Cc6c(n[nH]c6N)C(C)(C)C5CC[C@]43C)C2C1", "note": "(stereo partly drawn) [Example 18, (4aS,6aS,6bR,13aR)-12-Amino-15-(3-(aminomethyl)phenyl)-2,2,6a,6b,9,9,13a-heptamethyl-2,3,4,4a,5,6,6a,6b,7,8,8a,9,11,13,13a,13b,14,15b-octadecahydro-1H-chryseno[1,2-f]indazole-4-a-carboxylic acid]", "values": [{"measurement": "P. aeruginosa: concentration that reduces the area of the spreading biofilm by greater than or equal to 85%", "setting": "P. aeruginosa biofilms", "value": 0.5, "unit": "µg/mL"}, {"measurement": "E. coli: concentration that reduces the area of the spreading biofilm by greater than or equal to 85%", "setting": "E. coli biofilms", "value": 1, "unit": "µg/mL"}]}, {"smiles": "CN1CCN(c2ccc(C3=C4C5CC(C)(C)CC[C@]5(C(=O)O)CC[C@@]4(C)[C@]4(C)CCC5C(C)(C)c6n[nH]c(N)c6C[C@]5(C)C4C3)cc2)CC1", "note": "(stereo partly drawn) [Example 53, (4aS,6aS,6bR,13aR)-12-Amino-2,2,6a,6b,9,9,13a-heptamethyl-15-(4-(4-methylpiperazin-1-yl)phenyl)-2,3,4,4a,5,6,6a,6b,7,8,8a,9,11,13,13a,13b,14,15b-octadecahydro-1H-chryseno[1,2-f]indazole-4-a-carboxylic acid]", "values": [{"measurement": "P. aeruginosa: concentration that reduces the area of the spreading biofilm by greater than or equal to 85%", "setting": "P. aeruginosa biofilms", "value": 0.5, "unit": "µg/mL"}, {"measurement": "E. coli: concentration that reduces the area of the spreading biofilm by greater than or equal to 85%", "setting": "E. coli biofilms", "value": 2, "unit": "µg/mL"}]}, {"smiles": "CC1(C)CC[C@]2(c3n[nH]c(O)c3F)CC[C@]3(C)C(=CCC4[C@@]5(C)Cc6c(n[nH]c6N)C(C)(C)C5CC[C@]43C)C2C1", "note": "(stereo partly drawn) [Compound 83, 3-((4aS,6aS,6bR,13aR)-12-Amino-2,2,6a,6b,9,9,13a-heptamethyl-2,3,4,4a,5,6,6a,6b,7,8,8a,9,11,13,13a,13b,14,15b-octadecahydro-1H-chryseno[1,2-f]indazol-4-a-yl)-4-fluoro-1H-pyrazol-5-ol]", "values": [{"measurement": "P. aeruginosa: concentration that reduces the area of the spreading biofilm by greater than or equal to 85%", "setting": "P. aeruginosa biofilms", "value": 0.25, "unit": "µg/mL"}, {"measurement": "E. coli: concentration that reduces the area of the spreading biofilm by greater than or equal to 85%", "setting": "E. coli biofilms", "value": 0.5, "unit": "µg/mL"}]}, {"smiles": "Cn1cc(C2=C3[C@@H]4CC(C)(C)CC[C@]4(C(=O)O)CC[C@@]3(C)[C@]3(C)CC[C@H]4C(C)(C)c5n[nH]c(N)c5C[C@]4(C)C3C2)cn1", "note": "(stereo partly drawn) [Example 28, (4aS,6aS,6bR,8aR,13aR,15bS)-12-Amino-2,2,6a,6b,9,9,13a-heptamethyl-15-(1-methyl-1H-pyrazol-4-yl)-2,3,4,4a,5,6,6a,6b,7,8,8a,9,11,13,13a,13b,14,15b-octadecahydro-1H-chryseno[1,2-f]indazole-4-a-carboxylic acid]", "values": [{"measurement": "P. aeruginosa: concentration that reduces the area of the spreading biofilm by greater than or equal to 85%", "setting": "P. aeruginosa biofilms", "value": 1, "unit": "µg/mL"}, {"measurement": "E. coli: concentration that reduces the area of the spreading biofilm by greater than or equal to 85%", "setting": "E. coli biofilms", "value": 2, "unit": "µg/mL"}]}, {"smiles": "CC1(C)CC[C@]2(c3nnc(O)s3)CC[C@]3(C)C(=CCC4[C@@]5(C)Cc6c(n[nH]c6N)C(C)(C)C5CC[C@]43C)C2C1", "note": "(stereo partly drawn) [Compound 78, 5-((4aS,6aS,6bR,13aR)-12-Amino-2,2,6a,6b,9,9,13a-heptamethyl-2,3,4,4a,5,6,6a,6b,7,8,8a,9,11,13,13a,13b,14,15b-octadecahydro-1H-chryseno[1,2-f]indazol-4-a-yl)-1,3,4-thiadiazol-2-ol]", "values": [{"measurement": "P. aeruginosa: concentration that reduces the area of the spreading biofilm by greater than or equal to 85%", "setting": "P. aeruginosa biofilms", "value": ">1", "unit": "µg/mL"}, {"measurement": "E. coli: concentration that reduces the area of the spreading biofilm by greater than or equal to 85%", "setting": "E. coli biofilms", "value": 1, "unit": "µg/mL"}]}]}
